Laboratory results from patent US7767659B2, “Synthesis of naturally occurring ecteinascidins and related compounds” (Pharma Mar, S.A., priority 2002, dated 2010).
Where two headings read alike, the source gives them in different places.

What was measured:
[1] = system: A-549; test: cells; conditions: for GI50: read-out: GI50 A549; for CC50: read-out: LC50 A549; for IC (TGI): read-out: TGI A549
Method in brief: (§1)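 Colorimetric SRB read (490 nm) on triplicate wells after 48 h at 37 °C, 5% CO2. Dose range 10 to 10^−8 μg/ml; 5×10^3 cells/well pre-attached 18 h.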

[2] = system: HT-29; test: cells; conditions: for GI50: read-out: GI50 HT29; for CC50: read-out: LC50 HT29; for IC (TGI): read-out: TGI HT29
Method in brief: as §1

[3] = system: LoVo; test: cells; conditions: for GI50: read-out: GI50 LOVO; for CC50: read-out: LC50 LOVO; for IC (TGI): read-out: TGI LOVO
Method in brief: as §1

[4] = system: DU-145; test: Inhibition of cells growth by colorimetric assay (SRB); conditions: for GI50: read-out: GI50 DU145; for CC50: read-out: LC50 DU145; for IC (TGI): read-out: TGI DU145
Method in brief: as §1

[5] = system: HeLa-APL; test: as above; conditions: for GI50: read-out: GI50 HELA-APL; for CC50: read-out: LC50 HELA-APL
Method in brief: as §1

[6] = system: HeLa; test: as above; conditions: for GI50: read-out: GI50 HELA; for CC50: read-out: LC50 HELA; for IC (TGI): read-out: TGI HELA
Method in brief: as §1

[7] = system: IGROV-1; test: as above; conditions: for GI50: read-out: GI50 IGROV; for CC50: read-out: LC50 IGROV; for IC (TGI): read-out: TGI IGROV
Method in brief: as §1

[8] = system: IGROV-ET; test: as above; conditions: for GI50: read-out: GI50 IGROV-ET; for CC50: read-out: LC50 IGROV-ET; for IC (TGI): read-out: TGI IGROV-ET
Method in brief: as §1

[9] = system: K-562; test: as above; conditions: for GI50: read-out: GI50 K562; for CC50: read-out: LC50 K562; for IC (TGI): read-out: TGI K562
Method in brief: as §1

[10] = system: LNCaP; test: as above; conditions: for GI50: read-out: GI50 LNCAP; for CC50: read-out: LC50 LNCAP; for IC (TGI): read-out: TGI LNCAP
Method in brief: as §1

[11] = system: LoVo-Dox; test: as above; conditions: for GI50: read-out: GI50 LOVO-DOX; for CC50: read-out: LC50 LOVO-DOX; for IC (TGI): read-out: TGI LOVO-DOX
Method in brief: as §1

[12] = system: PANC-1; test: as above; conditions: for GI50: read-out: GI50 PANC-1; for CC50: read-out: LC50 PANC-1; for IC (TGI): read-out: TGI PANC-1
Method in brief: as §1

[13] = system: SK-BR-3; test: as above; conditions: for GI50: read-out: GI50 SK-BR3; for CC50: read-out: LC50 SK-BR3; for IC (TGI): read-out: TGI SK-BR3
Method in brief: as §1

[14] = system: SK-MEL-28; test: as above; conditions: for GI50: read-out: GI50 MEL-28; for CC50: read-out: LC50 MEL-28; for IC (TGI): read-out: TGI MEL-28
Method in brief: as §1

[15] = HELA-APL, SRB, 48 hours exposure
[16] = IGROV-ET, SRB, 48 hours exposure
[17] = LOVO-DOX, SRB, 48 hours exposure

## C=CCN1C2Cc3cc(C)c(OC)c(O)c3C1C1C3SCC(NC(C)=O)C(=O)OCC(c4c5c(c(C)c(OC(C)=O)c43)OCO5)N1C2C#N (stereo not shown) [compound 24]
[1]; A549, SRB, 48 hours exposure
  TGI A549: 4.62E−08 Molar
  GI50: 0.0219 µM
  CC50: 0.0974 µM
[2]; HT29, SRB, 48 hours exposure
  TGI HT29: 1.39E−08 Molar
  GI50: 0.00517 µM
  CC50: 14.5 µM
[3]; LOVO, SRB, 48 hours exposure
  TGI LOVO: 8.21E−08 Molar
  GI50: 0.0261 µM
  CC50: 14.5 µM
[4]; DU145, SRB, 48 hours exposure
  TGI DU145: 5.23E−08 Molar
  GI50: 0.0278 µM
  CC50: 0.125 µM
[5]; [15]
  TGI HELA-APL: 4.65E−08 Molar
  GI50: 0.0203 µM
  CC50: 0.107 µM
[6]; HELA, SRB, 48 hours exposure
  TGI HELA: 4.76E−08 Molar
  GI50: 0.0203 µM
  CC50: 0.112 µM
[7]; IGROV, SRB, 48 hours exposure
  TGI IGROV: 3.18E−08 Molar
  GI50: 0.00821 µM
  CC50: 0.11 µM
[8]; [16]
  TGI IGROV-ET: 6.20E−08 Molar
  GI50: 0.0295 µM
  CC50: 0.13 µM
[9]; K562, SRB, 48 hours exposure
  TGI K562: 1.71E−08 Molar
  GI50: 0.00407 µM
  CC50: 0.0938 µM
[10]; LNCAP, SRB, 48 hours exposure
  TGI LNCAP: 2.53E−08 Molar
  GI50: 0.0084 µM
  CC50: 0.0644 µM
[11]; [17]
  TGI LOVO-DOX: 1.74E−06 Molar
  GI50: 0.115 µM
  CC50: 14.5 µM
[12]; PANC-1, SRB, 48 hours exposure
  TGI PANC-1: 9.19E−08 Molar
  GI50: 0.0301 µM
  CC50: 14.5 µM
[13]; SK-BR3, SRB, 48 hours exposure
  TGI SK-BR3: 6.38E−08 Molar
  GI50: 0.0248 µM
  CC50: 0.269 µM
[14]; MEL-28, SRB, 48 hours exposure
  TGI MEL-28: 4.27E−08 Molar
  GI50: 0.0201 µM
  CC50: 0.0909 µM

## C=CCN1[C@@H]2c3c(cc(C)c(OC)c3O)C[C@H]1[C@H](C#N)N1C2[C@@H]2SCC(NC(=O)C(F)(F)F)C(=O)OC[C@H]1c1c3c(c(C)c(OC(C)=O)c12)OCO3 (stereo partly shown) [compound 25]
[1]; Homo sapiens, A549, 48 h
  GI50: 0.927 µM
  CC50: 11.5 µM
  IC (TGI): 3.45 µM
[2]; Homo sapiens, HT-29, 48 h
  GI50: 1.64 µM
  CC50: 13.9 µM
  IC (TGI): 8.57 µM
[3]; Homo sapiens, LoVo, 48 h
  GI50: 0.938 µM
  CC50: 9.27 µM
  IC (TGI): 3.16 µM
[4]; Homo sapiens, DU-145, 48 h
  GI50: 0.861 µM
  CC50: 6.57 µM
  IC (TGI): 2.2 µM
[5]; Homo sapiens, 48 h
  GI50: 0.939 µM
  CC50: 7.69 µM
[5]; Homo sapiens, 48 h, read-out: TGI HELA-APL
  IC (TGI): 2.78 µM
[6]; Homo sapiens, HeLa, 48 h
  GI50: 1.5 µM
  CC50: 8.11 µM
  IC (TGI): 3.48 µM
[7]; Homo sapiens, IGROV-1, 48 h
  GI50: 0.66 µM
  CC50: 8.01 µM
  IC (TGI): 1.43 µM
[8]; Homo sapiens, 48 h
  GI50: 1.61 µM
  CC50: 12.1 µM
  IC (TGI): 4.41 µM
[9]; Homo sapiens, K562, 48 h
  GI50: 0.316 µM
  CC50: 3.78 µM
  IC (TGI): 0.775 µM
[10]; Homo sapiens, LNCaP, 48 h
  GI50: 0.323 µM
  CC50: 2.55 µM
  IC (TGI): 0.757 µM
[11]; Homo sapiens, 48 h
  GI50: 0.904 µM
  CC50: 13.9 µM
  IC (TGI): 3.77 µM
[12]; Homo sapiens, PANC-1, 48 h
  GI50: 1.37 µM
  CC50: 11 µM
  IC (TGI): 3.9 µM
[13]; Homo sapiens, SK-BR-3, 48 h
  GI50: 0.555 µM
  CC50: 8.64 µM
  IC (TGI): 1.06 µM
[14]; Homo sapiens, SK-MEL-28, 48 h
  GI50: 0.632 µM
  CC50: 5.65 µM
  IC (TGI): 1.77 µM

## C=CCN1[C@@H]2c3c(cc(C)c(OC)c3O)C[C@H]1[C@H](C#N)N1C2[C@@H]2SCC(NC(=O)CCCCCCCCCCCCCCC)C(=O)OC[C@H]1c1c3c(c(C)c(OC(C)=O)c12)OCO3 (stereo partly shown) [compound 26]
[1]; Homo sapiens, A549, 48 h
  GI50: 11.6 µM
  CC50: 11.6 µM
  IC (TGI): 11.6 µM
[2]; Homo sapiens, HT-29, 48 h
  GI50: 11.6 µM
  CC50: 11.6 µM
  IC (TGI): 11.6 µM
[3]; Homo sapiens, LoVo, 48 h
  GI50: 11.6 µM
  CC50: 11.6 µM
  IC (TGI): 11.6 µM
[4]; Homo sapiens, DU-145, 48 h
  GI50: 11.6 µM
  CC50: 11.6 µM
  IC (TGI): 11.6 µM
[5]; Homo sapiens, 48 h
  CC50: 11.6 µM
[6]; Homo sapiens, HeLa, 48 h
  GI50: 11.6 µM
  CC50: 11.6 µM
  IC (TGI): 11.6 µM
[7]; Homo sapiens, IGROV-1, 48 h
  GI50: 6.84 µM
  CC50: 11.6 µM
  IC (TGI): 11.6 µM
[8]; Homo sapiens, 48 h
  GI50: 11.6 µM
  CC50: 11.6 µM
  IC (TGI): 11.6 µM
[9]; Homo sapiens, K562, 48 h
  GI50: 2.3 µM
  CC50: 10.6 µM
  IC (TGI): 4.94 µM
[10]; Homo sapiens, LNCaP, 48 h
  GI50: 3.82 µM
  CC50: 11.6 µM
  IC (TGI): 11.6 µM
[11]; Homo sapiens, 48 h
  GI50: 11.6 µM
  CC50: 11.6 µM
  IC (TGI): 11.6 µM
[12]; Homo sapiens, PANC-1, 48 h
  GI50: 11.6 µM
  CC50: 11.6 µM
  IC (TGI): 11.6 µM
[13]; Homo sapiens, SK-BR-3, 48 h
  GI50: 4.23 µM
  CC50: 11.6 µM
  IC (TGI): 9.2 µM
[14]; Homo sapiens, SK-MEL-28, 48 h
  GI50: 11.6 µM
  CC50: 11.6 µM
  IC (TGI): 11.6 µM

## C=CCN1C2Cc3cc(C)c(OC)c(O)c3C1C1C3SCC(NC(=O)CC)C(=O)OCC(c4c5c(c(C)c(OC(C)=O)c43)OCO5)N1C2C#N (stereo not shown) [compound 27]
[1]; A549, SRB, 48 hours exposure
  TGI A549: 2.06E−07 Molar
  GI50: 0.0626 µM
  CC50: 1.89 µM
[2]; HT29, SRB, 48 hours exposure
  TGI HT29: 1.42E−06 Molar
  GI50: 0.0756 µM
  CC50: 14.2 µM
[3]; LOVO, SRB, 48 hours exposure
  TGI LOVO: 2.36E−07 Molar
  GI50: 0.0804 µM
  CC50: 0.707 µM
[4]; DU145, SRB, 48 hours exposure
  TGI DU145: 8.48E−07 Molar
  GI50: 0.0755 µM
  CC50: 14.2 µM
[5]; [15]
  TGI HELA-APL: 3.04E−07 Molar
  GI50: 0.0951 µM
  CC50: 0.951 µM
[6]; HELA, SRB, 48 hours exposure
  TGI HELA: 2.75E−07 Molar
  GI50: 0.0978 µM
  CC50: 0.786 µM
[7]; IGROV, SRB, 48 hours exposure
  TGI IGROV: 1.02E−07 Molar
  GI50: 0.0407 µM
  CC50: 1.02 µM
[8]; [16]
  TGI IGROV-ET: 3.87E−07 Molar
  GI50: 0.165 µM
  CC50: 0.915 µM
[9]; K562, SRB, 48 hours exposure
  TGI K562: 5.66E−08 Molar
  GI50: 0.0217 µM
  CC50: 0.206 µM
[10]; LNCAP, SRB, 48 hours exposure
  TGI LNCAP: 6.46E−08 Molar
  GI50: 0.0261 µM
  CC50: 0.261 µM
[11]; [17]
  TGI LOVO-DOX: 1.42E−05 Molar
  GI50: 0.431 µM
  CC50: 14.2 µM
[12]; PANC-1, SRB, 48 hours exposure
  TGI PANC-1: 1.45E−06 Molar
  GI50: 0.0928 µM
  CC50: 14.2 µM
[13]; SK-BR3, SRB, 48 hours exposure
  TGI SK-BR3: 1.97E−07 Molar
  GI50: 0.0558 µM
  CC50: 1.05 µM
[14]; MEL-28, SRB, 48 hours exposure
  TGI MEL-28: 1.34E−07 Molar
  GI50: 0.0614 µM
  CC50: 0.594 µM
